We go through 20 molecules from publication PMC8026400, “Osmium–arene complexes with high potency towards Mycobacterium tuberculosis” (Metallomics: Integrated Biometal Science, 2021).

≈ marks a conversion by molar mass, not a printed value.

The MIC is the lowest concentration that inhibits growth of the organism. Usually IC50 stands for the concentration that gives 50% inhibition. Read a high IC50 as lower potency.

The test system of test [1] is Mtb. Nature of the test: Minimum bactericidal concentration against Mtb (CFU plating). In kind it is cell-based, Mycobacterium tuberculosis. The settings on record: for bactericidal character against actively growing Mtb: from correlation of MBC with MIC; for MBC (minimal bactericidal concentration): lowest concentration with no CFUs on 7H10 medium. As for the experimental part: The minimum bactericidal activity (MBC) was determined by setting up a microtitre plate as performed for the MIC determination. Instead of adding resazurin, each well from the microtitre plate was plated on to solid 7H10 medium and the CFUs were determined after incubation at 37°C. The lowest concentration at which no CFUs were counted was taken as the MBC. The MBCs were carried out with three independent experimental repeats.

The subject of test [2] is Mtb H37Rv. Nature of the test: MIC against Mtb H37Rv, resazurin microtitre assay. The test is classed as cell-based, Mycobacterium tuberculosis. To be noted: 7-day exposure, Middlebrook 7H9 broth, 0.2% glycerol, 0.05% Tween 80, 10% ADC, three biological repeats. In general terms: Resazurin is reduced to fluorescent resorufin, in cell work by metabolically active cells.
Test [3] concerns MRC5 (human foetal lung fibroblast) cells. Description: Antiproliferative activity against human cell line, SRB assay. In kind it is cell-based. The settings on record: 24 h drug exposure and 72 h recovery in drug-free medium. How it is done: MRC5 (human foetal lung fibroblast) cell lines were obtained from Public Health England (mycoplasma-free status confirmed at six-monthly intervals by internal and external screening). They were thawed upon receipt and the supernatant removed after centrifugation (1000 rpm, 5 min). Cells were re-suspended in DMEM culture medium (supplemented with 10% v/v FCS, 1% penicillin/streptomycin, and 1% L-glutamine) and grown as adherent monolayers at 310 K in a 5% CO2 humidified atmosphere. Cells were passaged using trypsin/EDTA after reaching ∼90% confluence. Trypsin activity was quenched by addition of excess medium, and the single-cell suspension passaged twice weekly. MRC5 fibroblasts were discarded after five passages.
Briefly, 5 × 10^3 cells (MRC5) were seeded in a 96-well plate using 0.15 mL of culture medium. After 48 h pre-incubation at 310 K, the supernatant was removed and cells exposed to six concentrations (0–100 µM) of osmium complex, for which exact concentrations were determined using ICP-OES (calibration standards for Os freshly prepared in 3.6% v/v nitric acid containing 100 mg L^–1 ascorbic acid and 10 mM thiourea). DMSO was used to aid solubility of Os complexes, but never exceeded 0.5% v/v in the final culture medium. Cells were exposed to Os complexes for 24 h, and then washed with PBS and allowed 72 h recovery time in drug-free medium. Cell viability was determined using the sulforhodamine B (SRB) assay. Cells were fixed using 50 µL of 50% TCA, incubated at 277 K for 1 h, and then stained using SRB dye (0.4% dye in 1% acetic acid). After 30 min, excess dye was removed by acetic acid washing, and then the stain liberated using Tris base (10 mM, pH 10.5). Absorbance was measured using a Thermo Scientific Multiskan FC microplate reader fitted with a 492-nm filter. Data were processed using Microsoft Excel and are reported as percentage survival relative to the untreated control. Sigmoidal dose/response curves were fitted using Origin 2016 to determine IC50. Data were acquired as duplicate of triplicate experiments, with a positive control of cisplatin (CDDP).
Background: The SRB assay estimates cell density from bound dye.

Test [4] concerns Mtb. The settings on record: comparison values, no reference given; cited from earlier work.

Take `CN(C)c1ccc(N=Nc2ccccn2)cc1.Cc1ccc(C(C)C)cc1.F[P-](F)(F)(F)(F)F.[Cl][Os+]` [Complex 1]: in test [1], the “bactericidal character against actively growing Mtb” value is on record as “bactericidal” and the “MBC (minimal bactericidal concentration)” value worked out at 12.5 µM. Also, the MIC in test [2] amounted to 5 µM. Besides, the IC50 in test [3] came out at 7.1 ± 0.2 µM.

With `[H]/N=C(/N)N[C@H]1[C@H](O)[C@@H](O)[C@H](O[C@@H]2O[C@@H](C)[C@](O)(C=O)[C@H]2O[C@@H]2O[C@@H](CO)[C@H](O)[C@@H](O)[C@@H]2NC)[C@@H](N/C(N)=N\[H])[C@@H]1O` [streptomycin], the “MIC of current clinical TB drugs” value in test [4] is on record as around 9 µM.

Turning to `NNC(=O)c1ccncc1` [isoniazid], the “MIC of current clinical TB drugs” value in test [4] is listed as around 1 µM.

With `F[P-](F)(F)(F)(F)F.Oc1ccc(N=Cc2ccccn2)cc1.[I][Os+].c1ccc(-c2ccccc2)cc1` [Complex 15], the MIC in test [2] is on record as 5 µM. This molecule also displayed an IC50 in test [3] of 13.5 ± 0.9 µM.

As to `Cc1ccc(C(C)C)cc1.F[P-](F)(F)(F)(F)F.Fc1ccc(N=Nc2ccccc2)nc1.[I][Os+]` [Complex 12], the MIC in test [2] is 15.6 µM. In addition, inhibition in test [3] was half-maximal at 9.1 ± 0.6 µM (IC50).

`Cc1ccc(C(C)C)cc1.F[P-](F)(F)(F)(F)F.[Cl][Os+].c1ccc(N=Nc2ccccn2)cc1` [Complex 9] gave a minimum inhibitory concentration (MIC) in test [2] of 15.6 µM. The molecule further yielded an IC50 in test [3] of 15 ± 2 µM.

With `Cc1ccc(C(C)C)cc1.F[P-](F)(F)(F)(F)F.[I][Os+].c1ccc(N=Nc2ccccn2)cc1` [Complex 10], in test [2], the MIC came to 5 µM. Further, the IC50 in test [3] turned out to be 0.79 ± 0.06 µM.

`Cc1ccc(C(C)C)cc1.Clc1ccc(N=Nc2ccccc2)nc1.F[P-](F)(F)(F)(F)F.[I][Os+]` [Complex 14]: the MIC in test [2] stood at 62.5 µM. Moreover, 16 ± 2 µM corresponded to half-maximal inhibition in test [3] (IC50).

In the case of `CN(C)c1ccc(N=Nc2ccccn2)cc1.F[P-](F)(F)(F)(F)F.[I][Os+].c1ccc(-c2ccccc2)cc1` [Complex 4], in test [1], the “bactericidal character against actively growing Mtb” value is listed as “bactericidal” and the “MBC (minimal bactericidal concentration)” value amounted to 6.25 µM. This molecule displayed an MIC in test [2] of 2.5 µM. This molecule showed an IC50 in test [3] of 0.42 ± 0.03 µM.

In the case of `CN(C)c1ccc(N=Cc2ccccn2)cc1.Cc1ccc(C(C)C)cc1.F[P-](F)(F)(F)(F)F.[I][Os+]` [Complex 6], in test [2], the MIC amounted to 7.81 µM. The molecule further had an IC50 in test [3] of 13 ± 2 µM.

The molecule `CN(C)c1ccc(N=Nc2ccccn2)cc1.Cc1ccc(C(C)C)cc1.[I-].[I][Os+]` [Complex 8] registered an MIC in test [2] of 1.25 µM. Also, the IC50 in test [3] came to 0.42 ± 0.01 µM.

Take `CC[C@@H](CO)NCCN[C@@H](CC)CO` [ethambutol]: the “MIC of current clinical TB drugs” value in test [4] is recorded as around 5 µM.

`Brc1ccc(N=Nc2ccccc2)nc1.Cc1ccc(C(C)C)cc1.F[P-](F)(F)(F)(F)F.[Cl][Os+]` [Complex 11]: the MIC in test [2] turned out to be 125 µM. Also, in test [3], the IC50 turned out to be 18 ± 1 µM.

`CN(C)c1ccc(N=Nc2ccccn2)cc1.Cc1ccc(C(C)C)cc1.[Cl-].[I][Os+]` [Complex 7] yielded an MIC in test [2] of 1.25 µM. The IC50 in test [3] turned out to be 0.68 ± 0.03 µM.

With `CN(C)c1ccc(N=Cc2ccccn2)cc1.Cc1ccc(C(C)C)cc1.F[P-](F)(F)(F)(F)F.[Cl][Os+]` [Complex 5], the MIC in test [2] worked out at 31.25 µM. The IC50 in test [3] came to 7.6 ± 0.9 µM.

Consider `CN(C)c1ccc(N=Nc2ccccn2)cc1.Cc1ccc(C(C)C)cc1.F[P-](F)(F)(F)(F)F.[I][Os+]` [Complex 2, [Os(AzPy-NMe2)I(p-cymene)]PF6], for which, in test [1], the “MBC (minimal bactericidal concentration)” value was 6.25 µM. This molecule registered an MIC in test [2] of 1.25 µM. In test [3], this molecule yielded an IC50 of 0.89 ± 0.01 µM.

`CN(C)c1ccc(N=Nc2ccccn2)cc1.F[P-](F)(F)(F)(F)F.[Cl][Os+].c1ccc(-c2ccccc2)cc1` [Complex 3] displayed an MIC in test [2] of 31.25 µM. Besides, in test [3], the IC50 was found to be 16.9 ± 0.1 µM.

In the case of capreomycin, in test [4], the “MIC of current clinical TB drugs” value is reported as around 3 µM.

`CO[C@H]1/C=C/O[C@@]2(C)Oc3c(C)c(O)c4c(O)c(c(/C=N/N5CCN(C)CC5)c(O)c4c3C2=O)NC(=O)/C(C)=C\C=C\[C@H](C)[C@H](O)[C@@H](C)[C@@H](O)[C@@H](C)[C@H](OC(C)=O)[C@@H]1C` [Rifampicin, reference compound] returned an MIC in test [2] (Mycobacterium tuberculosis, H37RV, 168 h) of 0.38 to 0.76 µM (≈ 0.313 to 0.625 µg/mL).

Regarding `F[P-](F)(F)(F)(F)F.Fc1ccc(N=Nc2ccccc2)nc1.[I][Os+].c1ccc(-c2ccccc2)cc1` [Complex 13], the MIC in test [2] was determined as 62.5 µM. Also, in test [3], 5.2 ± 0.7 µM corresponded to half-maximal inhibition (IC50).
